From ChEMBL document CHEMBL1135548 (J Med Chem, 2002) come the findings set out here.

SMILES strings stand for the structures.

Holding throughout (test): biochemical
The target in experiment [1] is T1, Adenosine receptor A2a (Homo sapiens, UniProt P29274).
The target in experiment [2] is T2, Adenosine receptor A1 (Homo sapiens, UniProt P30542).
T2 sequence (P30542 whole entry): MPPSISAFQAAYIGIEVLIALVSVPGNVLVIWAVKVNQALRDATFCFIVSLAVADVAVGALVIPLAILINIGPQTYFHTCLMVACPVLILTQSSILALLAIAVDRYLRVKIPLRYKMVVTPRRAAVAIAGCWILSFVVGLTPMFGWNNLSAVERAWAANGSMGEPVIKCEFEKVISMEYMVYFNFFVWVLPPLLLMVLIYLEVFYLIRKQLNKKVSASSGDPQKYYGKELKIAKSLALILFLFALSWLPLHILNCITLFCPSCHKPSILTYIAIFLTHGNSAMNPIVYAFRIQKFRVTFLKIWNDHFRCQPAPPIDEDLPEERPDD

The target in experiment [3] is T3, Adenosine receptor A2b (Homo sapiens, UniProt P29275).
T3 sequence (P29275 whole entry): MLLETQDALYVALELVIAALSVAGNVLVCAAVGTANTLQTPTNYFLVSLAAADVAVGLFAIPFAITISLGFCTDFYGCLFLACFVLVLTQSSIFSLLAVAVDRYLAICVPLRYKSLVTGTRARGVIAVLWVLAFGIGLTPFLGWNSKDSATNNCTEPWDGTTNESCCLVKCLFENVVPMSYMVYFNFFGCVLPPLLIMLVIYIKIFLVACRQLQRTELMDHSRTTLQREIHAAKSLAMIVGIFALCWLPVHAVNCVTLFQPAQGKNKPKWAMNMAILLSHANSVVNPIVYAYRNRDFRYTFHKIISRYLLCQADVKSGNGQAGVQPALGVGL
Description: Inhibition of [3H]DPCPX binding to human Adenosine A2B receptor expressed in HEK cells; range 640-1100

For experiment [4], the target named is T1, Adenosine receptor A2a. The source holds these as a separate data set.
Description: Inhibition of [3H]CGS-21680 binding to human Adenosine A2a receptor expressed in HEK293 cells; Range 438-749
Experiment [5] concerns the target T3, Adenosine receptor A2b. The source holds these as a separate data set.
Description: Inhibition of [3H]DPCPX binding to human Adenosine A2B receptor expressed in HEK cells; Range 3580-12400
Experiment [6] deals with T2, Adenosine receptor A1. This is another data set of the same source.
For experiment [7], the target named is T2, Adenosine receptor A1. This is another data set of the same source.
Description: Inhibition of [3H]DPCPX binding to human Adenosine A1 receptor expressed in CHO cells; Range 256-620
The target of experiment [8] is T3, Adenosine receptor A2b. The source holds these as a separate data set.
For experiment [9], the target named is T1, Adenosine receptor A2a. This is another data set of the same source.
The target in experiment [10] is T2, Adenosine receptor A1. The format is cell-based, CHO.
Description: Inhibition of [3H]DPCPX binding to human Adenosine A1 receptor expressed in CHO cells
Experiment [11] addresses T1, Adenosine receptor A2a. The source holds these as a separate data set.
Description: Inhibition of [3H]CGS-21680 binding to human Adenosine A2A receptor expressed in HEK293 cells

T1 sequence (P29274 whole entry): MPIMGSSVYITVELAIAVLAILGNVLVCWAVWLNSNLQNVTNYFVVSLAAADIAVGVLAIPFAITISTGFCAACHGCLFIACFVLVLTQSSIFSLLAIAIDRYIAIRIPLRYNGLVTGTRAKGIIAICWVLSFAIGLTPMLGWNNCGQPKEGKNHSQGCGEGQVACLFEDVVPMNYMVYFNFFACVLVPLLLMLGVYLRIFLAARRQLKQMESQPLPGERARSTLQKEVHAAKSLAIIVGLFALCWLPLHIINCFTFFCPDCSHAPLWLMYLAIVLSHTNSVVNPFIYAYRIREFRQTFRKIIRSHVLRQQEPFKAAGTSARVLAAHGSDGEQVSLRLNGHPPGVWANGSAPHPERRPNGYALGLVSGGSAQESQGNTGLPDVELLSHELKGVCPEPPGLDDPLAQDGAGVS

Broadly, the IC50 is the point on the concentration scale where inhibition reaches its midpoint. A low value points to greater potency in that assay. `CCCCCc1nc2nc[nH]c2c2nc(-c3ccccc3)nn12` registered a half-maximal inhibitory concentration (IC50) against Adenosine receptor A2a [1] of 200 nM.

On Adenosine receptor A2a [1], `CCCCc1nc2nc[nH]c2c2nc(-c3cccc(Cl)c3)nn12` gave an IC50 of 56 nM.

On to `CCCCc1nc2[nH]cnc2c2nc(-c3cccc(C)c3)nn12`, for which 188 nM corresponded to half-maximal inhibition against Adenosine receptor A2a [1] (IC50).

In general, Ki refers to the dissociation constant of the complex between target and ligand, obtained from inhibition or displacement. Higher therefore signals weaker binding. Consider `CCCCc1nc2nc[nH]c2c2nc(-c3ccc(OCC)cc3)nn12`, for which the IC50 on Adenosine receptor A2a [1] was 3800 nM. Besides, the inhibitory constant (Ki) stood at 413 nM on Adenosine receptor A1 [2], 838 nM at Adenosine receptor A2b [3] and 572 nM at Adenosine receptor A2a [4].

The compound `CCCCc1nc2[nH]cnc2c2nc(Cc3ccccc3)nn12` yielded an IC50 on Adenosine receptor A2a [1] of 47 nM.

As to `CCCCc1nc2nc[nH]c2c2nc(-c3ccc(Br)cc3)nn12`, the IC50 against Adenosine receptor A2a [1] was 3300 nM.

Compound `CCCCc1nc2[nH]cnc2c2nc(-c3cccc(OC)c3)nn12` returned a concentration for half-maximal inhibition (IC50) at Adenosine receptor A2a [1] of 67 nM.

On Adenosine receptor A2a [1], `CCCCc1nc2[nH]cnc2c2nc(-c3cccnc3)nn12` gave an IC50 of 900 nM.

For `CCCCCCc1nc2nc[nH]c2c2nc(-c3ccccc3)nn12`, it took 7800 nM to reach half-maximal inhibition against Adenosine receptor A2a [1] (IC50).

Compound `CCCCc1nc2[nH]cnc2c2nc(C)nn12` registered an IC50 at Adenosine receptor A2a [1] of 46 nM.

In the case of `CCCCc1nc2nc[nH]c2c2nc(-c3ccc(O)cc3)nn12`, the half-maximal inhibitory concentration (IC50) at Adenosine receptor A2a [1] is 58 nM.

On to `CCCCc1nc2[nH]cnc2c2nc(-c3ccc(N(C)C)cc3)nn12`, for which the Ki was determined as 6.66 µM on Adenosine receptor A2b [5] and 1310 nM on Adenosine receptor A1 [6].

On Adenosine receptor A2a [1], `CCCc1nc2nc[nH]c2c2nc(-c3ccccc3)nn12` yielded an IC50 of 120 nM.

Consider `CCCCc1nc2[nH]cnc2c2nc(-c3ccco3)nn12`, for which, at Adenosine receptor A2a [1], the IC50 worked out at 210 nM.

On Adenosine receptor A2a [1], `CCc1nc2[nH]cnc2c2nc(-c3ccccc3)nn12` registered an IC50 of 360 nM.

As to `CCCCc1nc2[nH]cnc2c2nc(-c3ccc(OC)cc3)nn12`, at Adenosine receptor A2a [1], the IC50 was 1600 nM. Further, the Ki at Adenosine receptor A1 [7] came to 398 nM; on Adenosine receptor A2b [8], 1030 nM; at Adenosine receptor A2a [9], 892 nM.

On Adenosine receptor A2a [1], `CCCCc1nc2[nH]cnc2c2nc(-c3ccc(C)cc3)nn12` had a half-maximal inhibitory concentration (IC50) of 180 nM.

As to `CCCCc1nc2nc[nH]c2c2nc(-c3ccc(F)cc3)nn12`, at Adenosine receptor A2a [1], the IC50 amounted to 510 nM.

`CCCCc1nc2[nH]cnc2c2nc(-c3cc(OC)c(OC)c(OC)c3)nn12` yielded an IC50 at Adenosine receptor A2a [1] of 2500 nM.

`Cc1nc2[nH]cnc2c2nc(-c3ccccc3)nn12` returned an IC50 against Adenosine receptor A2a [1] of 550 nM.

Take `COc1ccc(-c2csc3nc(=O)cc(N)n23)cc1`: the Ki on Adenosine receptor A1 [10] and at Adenosine receptor A2a [11] was over 10 µM throughout.
